Where a name gives a salt, the structure may show the parent alone.
Experiments:
[1] = test system: MCF-7 breast epithelial cancer cells; experiment: MT2 staining of MCF-7 cells treated with inducers of autophagy, ER stress or apoptosis; assay type: cell-based, human; settings: 1-5 μM MT2; Rapamycin, Thapsigargin, or TNFα and CHx; excitation 488 nm, emission 520, 600, 690 nm
Procedure: FIG. 9 depicts microscopy images showing fluorescence change of MT2 and reference dyes following drug treatment of MCF-7 human epithelial breast adenocarcinoma cells. MCF-7 cells were cultured for 12 hrs in standard conditions and treated with drugs to induce autophagy (Rapamycin), endoplasmic reticulum stress (Thapsigargin), apoptosis (Tumor Necrosis Factor alpha, TNFα, and Cyclohexamide, CHx), or solvent control (DMSO). Dye MT2 was excited at 488 nm, and emission was simultaneously collected at three wavelengths, 520 nm (Green), 600 nm (Red), and 690 (Far Red) nm.
The dye was excited at 488 nm, and emission was simultaneously collected at three wavelengths, 520 (Green), 600 (Red), and 690 (Far Red) nm. […] Image analysis by machine-learning algorithms trained on measurements of cellular intensity, morphology, and texture features permits to distinguish treatment-specific phenotypic states.

[2] = test system: primary cells (lymphocytes) and cell lines (tumoral); experiment: Fluorescence change of dye-stained cells after treatment with agents that induce cell death; assay type: cell-based; settings: for fluorescence intensity relative to MT4 and MT5 / signal-to-noise ratio relative to MT4 and MT5: low micromolar staining concentrations (e.g., 1 μM); for change in fluorescence intensity of the dye after treatment with cell-death inducing agents: staurosporine, or AZD 5991 plus A1331852, in cells sensitive to these drugs but not in chemoresistant cells
Procedure: FIG. 1 depicts microscopy images showing fluorescence change of MT2 and reference dyes following drug treatment of primary lymphocytes. Primary lymphocytes were cultured for 24 hrs with 1 μM Staurosporine (STS, pan-kinase inhibitor) or DMSO (solvent control). Cells were stained with Hoechst (left images), tetramethylrhodamine ethyl ester (TMRE) (middle images) and MT2 (right images). Scale bar, 20 μm.
(§1) MCF10A cells were cultured for 24 hrs prior to 72 hr dual treatment with 0.312 μM each of AZD 5991 (Bcl-XL inhibitor) and A1331852 (MCL-1 inhibitor) or DMSO (solvent control). FIG. 2A: cells were stained with Hoechst (left images), TMRE (middle images) and MT3 (right images). Scale bar, 100 μm. FIGS. 2B-E: comparison of the staining pattern of Hoechst, MT3, and TMRE in control and treated MCF10A epithelial breast cells.
(§2) FIG. 3 depicts microscopy images showing fluorescence change of 1 μM MT3 and reference dyes following drug treatment of CAMA-1 luminal-type human breast cancer cells. CAMA-1 cells were cultured for 24 hrs prior to 72 hr dual treatment with 0.312 μM each of AZD 5991 (Bcl-XL inhibitor) and A1331852 (MCL-1 inhibitor) or DMSO (solvent control). Cells were stained with Hoechst (left images), TMRE (middle images) and MT3 (right images). Scale bar, 100 μm.
(§3) FIG. 4 depicts microscopy images showing fluorescence change of MT3 and reference dyes following drug treatment of MCF-7 human epithelial breast adenocarcinoma cells. MCF-7 cells were cultured for 24 hrs prior to 72 hr dual treatment with 0.312 μM each of AZD 5991 (Bcl-XL inhibitor) and A1331852 (MCL-1 inhibitor) or DMSO (solvent control). Cells were stained with Hoechst (left images), TMRE (middle images) and MT3. Scale bar, 100 μm.
as §2, with “FIG. 5” for “FIG. 3”, “of” for “of 1 μM”, “of Zr-75-1 epithelial” for “of CAMA-1 luminal-type human”, “breast ductal carcinoma” for “breast cancer”, “cells. Zr-75-1” for “cells. CAMA-1”
as §3, with “FIG. 6” for “FIG. 4”, “of MDA-MB-231” for “of MCF-7 human”, “cells. MDA-MB-231” for “cells. MCF-7”, “and MT3 (right images).” for “and MT3.”
as §3, with “FIG. 7” for “FIG. 4”, “of MDA-MB-468” for “of MCF-7 human”, “cells. MDA-MB-468” for “cells. MCF-7”
as §2, with “FIG. 8” for “FIG. 3”, “of” for “of 1 μM”, “of T47D epithelial” for “of CAMA-1 luminal-type human”, “breast ductal carcinoma” for “breast cancer”, “cells. T47D” for “cells. CAMA-1”
(§4) These changes in fluorescence emission properties were shared by all dyes tested (MT2-MT5).

[3] = test system: MCF10A epithelial breast cells; experiment: Staining of control and drug-treated MCF10A cells; assay type: cell-based
Procedure: FIGS. 2A-E depict microscopy images showing fluorescence change of 1 μM MT3 and reference dyes following drug treatment of non-tumorigenic MCF10A epithelial breast cells.
as §1, §4
In the figures, Hoechst stains DNA in the nucleus, and if the nucleus condenses that staining becomes bright (i.e., more dye per unit area). […] In FIG. 2E, the TMRE staining has almost completely disappeared in drug treated cells, whereas MT3 is staining the nuclei. […] FIGS. 7 and 8 have similar lack of staining for TMRE, FIG. 7 is similar to FIG. 4 where the staining with Hoechst and MT3 are mutually exclusive, and FIG. 8 is similar to FIG. 3 where MT3 is staining nuclei where the Hoechst has not condensed.

[4] = test system: Zr-75-1 epithelial breast ductal carcinoma cells; experiment: MT3 staining of drug-treated chemoresistant Zr-75-1 cells; assay type: cell-based; settings: 72 hr 0.312 μM each AZD 5991 and A1331852
Procedure: as §2, with “FIG. 5” for “FIG. 3”, “of” for “of 1 μM”, “of Zr-75-1 epithelial” for “of CAMA-1 luminal-type human”, “breast ductal carcinoma” for “breast cancer”, “cells. Zr-75-1” for “cells. CAMA-1”
as §4

MCF-7 tumoral cells = experiment: Staining of live MCF-7 cells with 1 μM dye (microscopy); assay type: cell-based, human
Procedure: FIGS. 14A-J depict microscopy images showing staining of MCF7 cells with 1 μM of the following dyes: MT3 (FIG. 14A), MT20 (FIG. 14B), MT21 (FIG. 14C), MT22 (FIG. 14D), MT23 (FIG. 14E), MT24 (FIG. 14F), MT25 (FIG. 14G), MT26 (FIG. 14H), MT27 (FIG. 14I), and MT28 (FIG. 14J). Scale bar, 25 μm.
Used at a standard 1 μM concentration, the proposed dyes produce varying staining patterns and intensities. Furthermore, the proposed dyes display fluorescent properties only when labelling cell organelles and can therefore be used directly without washing steps.

| Compound | ability to stain live cells (MCF-7 tumoral cells) | cell permeability (MCF-7 tumoral cells) | also measured |
| --- | --- | --- | --- |
| CC(C)CCN(CCC(C)C)c1ccc2cc(/C=C/c3cc[n+](CCCS(=O)(=O)[O-])c4ccccc34)ccc2c1 [MT2, 4-(2-[6-(diisopentylamino)-2-naphthalenyl]ethenyl)-1-(3-sulfopropyl)quinolinium inner salt] | – | – | staining pattern across phenotypic states (autophagy, ER stress, apoptosis) [1]: different staining patterns; fluorescence intensity relative to MT4 and MT5 [2]: better fluorescence intensity; signal-to-noise ratio relative to MT4 and MT5 [2]: better signal-to-noise ratios; change in fluorescence intensity of the dye after treatment with cell-death inducing agents [2]: increase in fluorescence intensity |
| Cc1cccc(N(c2cccc(C)c2)c2ccc3cc(/C=C/c4cc[n+](CCCS(=O)(=O)[O-])cc4)ccc3c2)c1 [MT3, 4-(2-[6-(dim-tolylamino)-2-naphthalenyl]ethenyl)-1-(3-sulfopropyl) pyridinium Inner Salt] | able to stain live cells | cell-permeable | staining intensity of drug-treated dying cells ([3]; MCF10A, 1 μM MT3, 72 hr 0.312 μM each AZD 5991 and A1331852, normal cells stained with different intensities): very brightly; fluorescence intensity relative to MT4 and MT5 [2]: better fluorescence intensity; signal-to-noise ratio relative to MT4 and MT5 [2]: better signal-to-noise ratios; change in fluorescence intensity of the dye after treatment with cell-death inducing agents [2]: increase in fluorescence intensity; staining of cells with condensed nuclei (Hoechst staining) [4]: did not show bright MT3 staining |
| Cc1cccc(N(c2cccc(C)c2)c2ccc3cc(/C=C/c4cc[n+](CCCS(=O)(=O)[O-])cc4)c4ccccc4c3c2)c1 [MT20, (E)-3-(4-(2-(3-(di-m-tolylamino)phenanthren-9-yl)vinyl)pyridin-1-ium-1-yl)propane-1-sulfonate] | able to stain live cells | cell-permeable | – |
| Cc1cccc(N(c2cccc(C)c2)c2ccc3cc(/C=C/c4cc[n+](CCCCS(=O)(=O)[O-])cc4)ccc3c2)c1 [MT21, (E)-4-(4-(2-(6-(di-m-tolylamino)naphthalen-2-yl)vinyl)pyridin-1-ium-1-yl)butane-1-sulfonate] | able to stain live cells | cell-permeable | – |
| CC(C)=CCN(CC=C(C)C)c1ccc2cc(/C=C/c3cc[n+](CCCS(=O)(=O)[O-])cc3)ccc2c1 [MT22, (E)-3-(4-(2-(6-(bis(3-methylbut-2-en-1-yl)amino)naphthalen-2-yl)vinyl)pyridin-1-ium-1-yl)propane-1-sulfonate] | able to stain live cells | cell-permeable | – |
| Cc1cccc(N(c2cccc(C)c2)c2ccc3cc(/C=C/c4cc[n+](CCCS(=O)(=O)[O-])cc4F)ccc3c2)c1 [MT23, 4-[(1E)-2-{6-[Bis(3-methylphenyl)amino]naphthalen-2-yl}ethenyl]-3-fluoro-1-(3-sulfopropyl)pyridin-1-ium] | – | cell-permeable | – |
| Cc1cccc(N(c2cccc(C)c2)c2ccc3cc(/C=C(\F)c4cc[n+](CCCS(=O)(=O)[O-])cc4)ccc3c2)c1 [MT24, 4-[(1Z)-2-{6-[Bis(3-methylphenyl)amino]naphthalen-2-yl}-1-fluoroethenyl]-1-(3-sulfopropyl)pyridin-1-ium] | – | cell-permeable | – |
| CC(C)=CCN(CC=C(C)C)c1ccc2cc(/C=C/c3cc[n+](CCCS(=O)(=O)[O-])cc3)ccc2c1F [MT25, 4-[(1E)-2-{6-[Bis(3-methylbut-2-en-1-yl)amino]-5-fluoronaphthalen-2-yl}ethenyl]-1-(3-sulfopropyl)pyridin-1-ium] | – | cell-permeable | – |
| CC(C)=CCN(CC=C(C)C)c1ccc2cc(/C=C/c3cc[n+](CCCS(=O)(=O)[O-])cc3)ccc2c1C(F)(F)F [MT26, 4-[(1E)-2-{6-[Bis(3-methylbut-2-en-1-yl)amino]-5-(trifluoromethyl)naphthalen-2-yl}ethenyl]-1-(3-sulfopropyl)pyridin-1-ium] | – | cell-permeable | – |
| Cc1cccc(N(c2cccc(C)c2)c2ccc3cc(/C=C/c4cc[n+](CCC[N+](C)(C)C)cc4)ccc3c2)c1 [MT27, 4-[(1E)-2-{6-[Bis(3-methylphenyl)amino]naphthalen-2-yl}ethenyl]-1-[3-(trimethylazaniumyl)propyl]pyridin-1-ium dibromide] | able to stain live cells | cell-permeable | – |
| Cc1cccc(N(c2cccc(C)c2)c2ccc3cc(/C=C/c4cc[n+](CC(O)C[N+](C)(C)CCO)cc4)ccc3c2)c1 (centres unmarked) [MT28, 4-[(1E)-2-{6-[Bis(3-methylphenyl)amino]naphthalen-2-yl}ethenyl]-1-{2-hydroxy-3-[(2 hydroxyethyl)dimethylazaniumyl]propyl}pyridin-1-ium dibromide] | able to stain live cells | cell-permeable | – |
| tetramethylrhodamine ethyl ester [TMRE, reference compound] | – | – | staining of drug-treated dying cells relative to control cells ([3]; 72 hr 0.312 μM each AZD 5991 and A1331852 (FIGS. 2E and 3)): low staining |
